{"source": "ChEMBL document CHEMBL5331050", "about": "“Spiro[benzoxazine-piperidin]-one derivatives as chitin synthase inhibitors and antifungal agents: Design, synthesis and biological evaluation” (Eur J Med Chem, 2022)", "format_in_all_cases": "functional", "key": {"Candida albicans [1]": {"tested_on": "Candida albicans", "assay": "Synergistic antifungal activity against Candida albicans ATCC 76615 assessed as fungal growth inhibition incubated for 24 hrs in the presence of 4-(6-methoxy-2-oxo-1,2-dihydrospiro[benzo[d][1,3]oxazine-4,4'-piperidin]-1'-yl)-N-(2-methoxy-4-nitrophenyl)-4-oxobut-2-enamide by broth dilution based checkerboard method"}, "Aspergillus flavus [2]": {"tested_on": "Aspergillus flavus", "assay": "Antifungal activity against Aspergillus flavus ATCC 16870 assessed as fungal growth inhibition incubated for 24 hrs by CLSI protocol based broth microdilution method"}, "Candida albicans [3]": {"tested_on": "Candida albicans", "assay": "Synergistic antifungal activity against Candida albicans ATCC 76615 assessed as fungal growth inhibition incubated for 24 hrs in the presence of N-(3-chloro-4-fluorophenyl)-4-(6-methoxy-2-oxo-1,2-dihydrospiro[benzo[d][1,3]oxazine-4,4'-piperidin]-1'-yl)-4-oxobut-2-enamide by broth dilution based checkerboard method"}, "Cryptococcus neoformans [4]": {"tested_on": "Cryptococcus neoformans", "assay": "Synergistic antifungal activity against Cryptococcus neoformans ATCC 208821 assessed as fungal growth inhibition incubated for 24 hrs in the presence of 4-(6-methoxy-2-oxo-1,2-dihydrospiro[benzo[d][1,3]oxazine-4,4'-piperidin]-1'-yl)-N-(4-methoxyphenyl)-4-oxobut-2-enamide by broth dilution based checkerboard method"}, "Aspergillus fumigatus [5]": {"tested_on": "Aspergillus fumigatus", "assay": "Synergistic antifungal activity against Aspergillus fumigatus GIMCC 3.19 assessed as fungal growth inhibition incubated for 24 hrs in the presence of 4-(6-methoxy-2-oxo-1,2-dihydrospiro[benzo[d][1,3]oxazine-4,4'-piperidin]-1'-yl)-4-oxo-N-phenylbut-2-enamide by broth dilution based checkerboard method"}, "Cryptococcus neoformans [6]": {"tested_on": "Cryptococcus neoformans", "assay": "Synergistic antifungal activity against Cryptococcus neoformans ATCC 208821 assessed as fungal growth inhibition incubated for 24 hrs in the presence of N-(4-bromophenyl)-4-(6-methoxy-2-oxo-1,2-dihydrospiro[benzo[d][1,3]oxazine-4,4'-piperidin]-1'-yl)-4-oxobut-2-enamide by broth dilution based checkerboard method"}, "Aspergillus flavus [7]": {"tested_on": "Aspergillus flavus", "assay": "Synergistic antifungal activity against Aspergillus flavus ATCC 16870 assessed as fungal growth inhibition incubated for 24 hrs in the presence of N-(4-bromophenyl)-4-(6-methoxy-2-oxo-1,2-dihydrospiro[benzo[d][1,3]oxazine-4,4'-piperidin]-1'-yl)-4-oxobut-2-enamide by broth dilution based checkerboard method"}, "Cryptococcus neoformans [8]": {"tested_on": "Cryptococcus neoformans", "assay": "Synergistic antifungal activity against Cryptococcus neoformans ATCC 208821 assessed as fungal growth inhibition incubated for 24 hrs in the presence of N-(3-chloro-4-fluorophenyl)-4-(6-methoxy-2-oxo-1,2-dihydrospiro[benzo[d][1,3]oxazine-4,4'-piperidin]-1'-yl)-4-oxobut-2-enamide by broth dilution based checkerboard method"}, "Aspergillus fumigatus [9]": {"tested_on": "Aspergillus fumigatus", "assay": "Synergistic antifungal activity against Aspergillus fumigatus GIMCC 3.19 assessed as fungal growth inhibition incubated for 24 hrs in the presence of N-(3-chloro-4-fluorophenyl)-4-(6-methoxy-2-oxo-1,2-dihydrospiro[benzo[d][1,3]oxazine-4,4'-piperidin]-1'-yl)-4-oxobut-2-enamide by broth dilution based checkerboard method"}, "Aspergillus flavus [10]": {"tested_on": "Aspergillus flavus", "assay": "Synergistic antifungal activity against Aspergillus flavus ATCC 16870 assessed as fungal growth inhibition incubated for 24 hrs in the presence of 4-(6-methoxy-2-oxo-1,2-dihydrospiro[benzo[d][1,3]oxazine-4,4'-piperidin]-1'-yl)-N-(4-methoxyphenyl)-4-oxobut-2-enamide by broth dilution based checkerboard method"}, "Aspergillus fumigatus [11]": {"tested_on": "Aspergillus fumigatus", "assay": "Synergistic antifungal activity against Aspergillus fumigatus GIMCC 3.19 assessed as fungal growth inhibition incubated for 24 hrs in the presence of 4-(6-methoxy-2-oxo-1,2-dihydrospiro[benzo[d][1,3]oxazine-4,4'-piperidin]-1'-yl)-N-(2-methoxy-4-nitrophenyl)-4-oxobut-2-enamide by broth dilution based checkerboard method"}, "Cryptococcus neoformans [12]": {"tested_on": "Cryptococcus neoformans", "assay": "Antifungal activity against Cryptococcus neoformans ATCC 208821 assessed as fungal growth inhibition incubated for 24 hrs by CLSI protocol based broth microdilution method"}, "Aspergillus fumigatus [13]": {"tested_on": "Aspergillus fumigatus", "assay": "Antifungal activity against Aspergillus fumigatus GIMCC 3.19 assessed as fungal growth inhibition incubated for 24 hrs by CLSI protocol based broth microdilution method"}, "Cryptococcus neoformans [14]": {"tested_on": "Cryptococcus neoformans", "assay": "Synergistic antifungal activity against Cryptococcus neoformans ATCC 208821 assessed as fungal growth inhibition incubated for 24 hrs in the presence of 4-(6-methoxy-2-oxo-1,2-dihydrospiro[benzo[d][1,3]oxazine-4,4'-piperidin]-1'-yl)-N-(2-methoxy-4-nitrophenyl)-4-oxobut-2-enamide by broth dilution based checkerboard method"}, "Candida albicans [15]": {"tested_on": "Candida albicans", "assay": "Antifungal activity against Candida albicans ATCC 76615 assessed as fungal growth inhibition incubated for 24 hrs by CLSI protocol based broth microdilution method"}, "Aspergillus fumigatus [16]": {"tested_on": "Aspergillus fumigatus", "assay": "Synergistic antifungal activity against Aspergillus fumigatus GIMCC 3.19 assessed as fungal growth inhibition incubated for 24 hrs in the presence of N-(4-bromophenyl)-4-(6-methoxy-2-oxo-1,2-dihydrospiro[benzo[d][1,3]oxazine-4,4'-piperidin]-1'-yl)-4-oxobut-2-enamide by broth dilution based checkerboard method"}, "Aspergillus flavus [17]": {"tested_on": "Aspergillus flavus", "assay": "Synergistic antifungal activity against Aspergillus flavus ATCC 16870 assessed as fungal growth inhibition incubated for 24 hrs in the presence of 4-(6-methoxy-2-oxo-1,2-dihydrospiro[benzo[d][1,3]oxazine-4,4'-piperidin]-1'-yl)-4-oxo-N-phenylbut-2-enamide by broth dilution based checkerboard method"}, "Candida albicans [18]": {"tested_on": "Candida albicans", "assay": "Synergistic antifungal activity against Candida albicans ATCC 76615 assessed as fungal growth inhibition incubated for 24 hrs in the presence of 4-(6-methoxy-2-oxo-1,2-dihydrospiro[benzo[d][1,3]oxazine-4,4'-piperidin]-1'-yl)-N-(4-methoxyphenyl)-4-oxobut-2-enamide by broth dilution based checkerboard method"}, "Candida albicans [19]": {"tested_on": "Candida albicans", "assay": "Synergistic antifungal activity against Candida albicans ATCC 76615 assessed as fungal growth inhibition incubated for 24 hrs in the presence of N-(2-chlorophenyl)-4-(6-methoxy-2-oxo-1,2-dihydrospiro[benzo[d][1,3]oxazine-4,4'-piperidin]-1'-yl)-4-oxobut-2-enamide by broth dilution based checkerboard method"}, "Aspergillus fumigatus [20]": {"tested_on": "Aspergillus fumigatus", "assay": "Synergistic antifungal activity against Aspergillus fumigatus GIMCC 3.19 assessed as fungal growth inhibition incubated for 24 hrs in the presence of N-(2-chlorophenyl)-4-(6-methoxy-2-oxo-1,2-dihydrospiro[benzo[d][1,3]oxazine-4,4'-piperidin]-1'-yl)-4-oxobut-2-enamide by broth dilution based checkerboard method"}, "Aspergillus fumigatus [21]": {"tested_on": "Aspergillus fumigatus", "assay": "Synergistic antifungal activity against Aspergillus fumigatus GIMCC 3.19 assessed as fungal growth inhibition incubated for 24 hrs in the presence of 4-(6-methoxy-2-oxo-1,2-dihydrospiro[benzo[d][1,3]oxazine-4,4'-piperidin]-1'-yl)-N-(4-methoxyphenyl)-4-oxobut-2-enamide by broth dilution based checkerboard method"}, "Aspergillus flavus [22]": {"tested_on": "Aspergillus flavus", "assay": "Synergistic antifungal activity against Aspergillus flavus ATCC 16870 assessed as fungal growth inhibition incubated for 24 hrs in the presence of N-(3-chloro-4-fluorophenyl)-4-(6-methoxy-2-oxo-1,2-dihydrospiro[benzo[d][1,3]oxazine-4,4'-piperidin]-1'-yl)-4-oxobut-2-enamide by broth dilution based checkerboard method"}, "Cryptococcus neoformans [23]": {"tested_on": "Cryptococcus neoformans", "assay": "Synergistic antifungal activity against Cryptococcus neoformans ATCC 208821 assessed as fungal growth inhibition incubated for 24 hrs in the presence of 4-(6-methoxy-2-oxo-1,2-dihydrospiro[benzo[d][1,3]oxazine-4,4'-piperidin]-1'-yl)-4-oxo-N-phenylbut-2-enamide by broth dilution based checkerboard method"}, "Candida albicans [24]": {"tested_on": "Candida albicans", "assay": "Synergistic antifungal activity against Candida albicans ATCC 76615 assessed as fungal growth inhibition incubated for 24 hrs in the presence of N-(4-bromophenyl)-4-(6-methoxy-2-oxo-1,2-dihydrospiro[benzo[d][1,3]oxazine-4,4'-piperidin]-1'-yl)-4-oxobut-2-enamide by broth dilution based checkerboard method"}, "Cryptococcus neoformans [25]": {"tested_on": "Cryptococcus neoformans", "assay": "Synergistic antifungal activity against Cryptococcus neoformans ATCC 208821 assessed as fungal growth inhibition incubated for 24 hrs in the presence of N-(2-chlorophenyl)-4-(6-methoxy-2-oxo-1,2-dihydrospiro[benzo[d][1,3]oxazine-4,4'-piperidin]-1'-yl)-4-oxobut-2-enamide by broth dilution based checkerboard method"}, "Aspergillus flavus [26]": {"tested_on": "Aspergillus flavus", "assay": "Synergistic antifungal activity against Aspergillus flavus ATCC 16870 assessed as fungal growth inhibition incubated for 24 hrs in the presence of 4-(6-methoxy-2-oxo-1,2-dihydrospiro[benzo[d][1,3]oxazine-4,4'-piperidin]-1'-yl)-N-(2-methoxy-4-nitrophenyl)-4-oxobut-2-enamide by broth dilution based checkerboard method"}, "Candida albicans [27]": {"tested_on": "Candida albicans", "assay": "Antifungal activity against fluconazole-resistant Candida albicans ATCC 76615R assessed as fungal growth inhibition"}, "Cryptococcus neoformans [28]": {"tested_on": "Cryptococcus neoformans", "assay": "Antifungal activity against fluconazole-resistant Cryptococcus neoformans ATCC 208821R assessed as fungal growth inhibition"}, "Candida albicans [29]": {"tested_on": "Candida albicans", "assay": "Synergistic antifungal activity against Candida albicans ATCC 76615 assessed as fungal growth inhibition incubated for 24 hrs in the presence of 4-(6-methoxy-2-oxo-1,2-dihydrospiro[benzo[d][1,3]oxazine-4,4'-piperidin]-1'-yl)-4-oxo-N-phenylbut-2-enamide by broth dilution based checkerboard method"}, "Aspergillus flavus [30]": {"tested_on": "Aspergillus flavus", "assay": "Synergistic antifungal activity against Aspergillus flavus ATCC 16870 assessed as fungal growth inhibition incubated for 24 hrs in the presence of N-(2-chlorophenyl)-4-(6-methoxy-2-oxo-1,2-dihydrospiro[benzo[d][1,3]oxazine-4,4'-piperidin]-1'-yl)-4-oxobut-2-enamide by broth dilution based checkerboard method"}}}
{"smiles": "OC(Cn1cncn1)(Cn1cncn1)c1ccc(F)cc1F", "note": "[FLUCONAZOLE]", "values": [{"measurement": "MIC", "setting": "Candida albicans [1]", "result": 16, "unit": "µg/mL"}, {"measurement": "MIC", "setting": "Aspergillus flavus [2]", "result": 16, "unit": "µg/mL"}, {"measurement": "MIC", "setting": "Candida albicans [3]", "result": 16, "unit": "µg/mL"}, {"measurement": "MIC", "setting": "Cryptococcus neoformans [4]", "result": 16, "unit": "µg/mL"}, {"measurement": "MIC", "setting": "Aspergillus fumigatus [5]", "result": 4, "unit": "µg/mL"}, {"measurement": "MIC", "setting": "Cryptococcus neoformans [6]", "result": 16, "unit": "µg/mL"}, {"measurement": "MIC", "setting": "Aspergillus flavus [7]", "result": 32, "unit": "µg/mL"}, {"measurement": "MIC", "setting": "Cryptococcus neoformans [8]", "result": 4, "unit": "µg/mL"}, {"measurement": "MIC", "setting": "Aspergillus fumigatus [9]", "result": 4, "unit": "µg/mL"}, {"measurement": "MIC", "setting": "Aspergillus flavus [10]", "result": 16, "unit": "µg/mL"}, {"measurement": "MIC", "setting": "Aspergillus fumigatus [11]", "result": 16, "unit": "µg/mL"}, {"measurement": "MIC", "setting": "Cryptococcus neoformans [12]", "result": 32, "unit": "µg/mL"}, {"measurement": "MIC", "setting": "Aspergillus fumigatus [13]", "result": 16, "unit": "µg/mL"}, {"measurement": "MIC", "setting": "Cryptococcus neoformans [14]", "result": 16, "unit": "µg/mL"}, {"measurement": "MIC", "setting": "Candida albicans [15]", "result": 16, "unit": "µg/mL"}, {"measurement": "MIC", "setting": "Aspergillus fumigatus [16]", "result": 16, "unit": "µg/mL"}, {"measurement": "MIC", "setting": "Aspergillus flavus [17]", "result": 8, "unit": "µg/mL"}, {"measurement": "MIC", "setting": "Candida albicans [18]", "result": 16, "unit": "µg/mL"}, {"measurement": "MIC", "setting": "Candida albicans [19]", "result": 4, "unit": "µg/mL"}, {"measurement": "MIC", "setting": "Aspergillus fumigatus [20]", "result": 16, "unit": "µg/mL"}, {"measurement": "MIC", "setting": "Aspergillus fumigatus [21]", "result": 16, "unit": "µg/mL"}, {"measurement": "MIC", "setting": "Aspergillus flavus [22]", "result": 16, "unit": "µg/mL"}, {"measurement": "MIC", "setting": "Cryptococcus neoformans [23]", "result": 16, "unit": "µg/mL"}, {"measurement": "MIC", "setting": "Candida albicans [24]", "result": 4, "unit": "µg/mL"}, {"measurement": "MIC", "setting": "Cryptococcus neoformans [25]", "result": 4, "unit": "µg/mL"}, {"measurement": "MIC", "setting": "Aspergillus flavus [26]", "result": 16, "unit": "µg/mL"}, {"measurement": "MIC", "setting": "Candida albicans [27]", "result": 256, "unit": "µg/mL"}, {"measurement": "MIC", "setting": "Cryptococcus neoformans [28]", "result": 256, "unit": "µg/mL"}, {"measurement": "MIC", "setting": "Candida albicans [29]", "result": 8, "unit": "µg/mL"}, {"measurement": "MIC", "setting": "Aspergillus flavus [30]", "result": 16, "unit": "µg/mL"}]}
